These results are taken from patent US20230079819A1, “COMPOUNDS AND USES THEREOF” (Foghorn Therapeutics Inc., priority 2019, published 2023).

In one assay the target is T1, BRM (Homo sapiens, UniProt P51531).
T1 construct: made in house; host or cells: High Five insect cells
Briefly: ATPase catalytic activity of BRM, ADP-Glo in vitro biochemical assay. Conditions: ATPase catalytic activity, 30 nM BRM, 400 μM ATP, read-out: BRM IP50 (μM)*. On the technique in general: ADP-Glo first removes unused ATP, then detects ADP through luciferase.

Another assay deals with T2, BRG-1 (Homo sapiens, UniProt P51532).
T2 construct: made in house; host or cells: High Five insect cells
Briefly: ATPase catalytic activity of BRG-1, ADP-Glo in vitro biochemical assay. Conditions: ATPase catalytic activity, 30 nM BRG-1, 400 μM ATP, read-out: BRG1 IP50 (μM)*.

T1 sequence (P51531 whole entry): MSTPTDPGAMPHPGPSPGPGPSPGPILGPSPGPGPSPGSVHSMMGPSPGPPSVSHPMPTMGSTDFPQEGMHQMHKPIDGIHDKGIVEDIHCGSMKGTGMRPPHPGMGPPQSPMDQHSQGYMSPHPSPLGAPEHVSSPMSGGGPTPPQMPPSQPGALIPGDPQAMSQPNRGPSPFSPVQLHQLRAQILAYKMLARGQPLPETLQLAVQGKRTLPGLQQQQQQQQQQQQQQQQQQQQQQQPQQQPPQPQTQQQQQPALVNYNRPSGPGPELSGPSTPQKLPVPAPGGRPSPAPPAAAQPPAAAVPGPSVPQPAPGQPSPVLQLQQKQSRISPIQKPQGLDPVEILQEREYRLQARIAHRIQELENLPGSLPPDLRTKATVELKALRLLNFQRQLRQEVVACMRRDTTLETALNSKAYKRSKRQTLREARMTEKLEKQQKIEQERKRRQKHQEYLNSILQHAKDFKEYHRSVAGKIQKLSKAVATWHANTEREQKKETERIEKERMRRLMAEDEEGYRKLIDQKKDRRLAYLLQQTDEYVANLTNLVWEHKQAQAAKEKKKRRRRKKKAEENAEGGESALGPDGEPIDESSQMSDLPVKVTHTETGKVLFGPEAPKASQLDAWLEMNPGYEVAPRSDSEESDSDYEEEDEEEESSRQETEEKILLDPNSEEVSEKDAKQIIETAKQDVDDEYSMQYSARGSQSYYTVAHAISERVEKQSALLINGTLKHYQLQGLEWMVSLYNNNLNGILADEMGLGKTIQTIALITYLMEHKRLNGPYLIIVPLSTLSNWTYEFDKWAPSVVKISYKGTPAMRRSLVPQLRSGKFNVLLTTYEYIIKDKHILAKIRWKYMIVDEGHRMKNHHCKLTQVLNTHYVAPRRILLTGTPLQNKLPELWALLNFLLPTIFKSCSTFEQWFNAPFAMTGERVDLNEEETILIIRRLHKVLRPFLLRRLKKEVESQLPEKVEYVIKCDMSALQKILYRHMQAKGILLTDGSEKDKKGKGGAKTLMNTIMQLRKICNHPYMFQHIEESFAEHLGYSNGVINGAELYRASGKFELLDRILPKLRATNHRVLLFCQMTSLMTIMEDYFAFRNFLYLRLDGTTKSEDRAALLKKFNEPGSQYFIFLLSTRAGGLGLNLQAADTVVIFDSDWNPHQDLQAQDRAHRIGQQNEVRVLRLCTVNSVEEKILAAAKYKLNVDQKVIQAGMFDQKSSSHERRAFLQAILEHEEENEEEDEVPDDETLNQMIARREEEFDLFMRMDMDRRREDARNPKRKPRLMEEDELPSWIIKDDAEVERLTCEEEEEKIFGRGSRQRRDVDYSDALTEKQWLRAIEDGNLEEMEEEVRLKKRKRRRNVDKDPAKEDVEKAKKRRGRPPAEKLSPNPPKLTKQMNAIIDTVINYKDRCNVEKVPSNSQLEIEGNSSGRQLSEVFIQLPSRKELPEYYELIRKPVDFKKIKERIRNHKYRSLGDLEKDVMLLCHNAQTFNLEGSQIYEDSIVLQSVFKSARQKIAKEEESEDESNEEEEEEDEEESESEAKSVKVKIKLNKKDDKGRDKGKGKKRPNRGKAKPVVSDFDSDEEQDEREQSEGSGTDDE
T2 sequence (P51532 whole entry): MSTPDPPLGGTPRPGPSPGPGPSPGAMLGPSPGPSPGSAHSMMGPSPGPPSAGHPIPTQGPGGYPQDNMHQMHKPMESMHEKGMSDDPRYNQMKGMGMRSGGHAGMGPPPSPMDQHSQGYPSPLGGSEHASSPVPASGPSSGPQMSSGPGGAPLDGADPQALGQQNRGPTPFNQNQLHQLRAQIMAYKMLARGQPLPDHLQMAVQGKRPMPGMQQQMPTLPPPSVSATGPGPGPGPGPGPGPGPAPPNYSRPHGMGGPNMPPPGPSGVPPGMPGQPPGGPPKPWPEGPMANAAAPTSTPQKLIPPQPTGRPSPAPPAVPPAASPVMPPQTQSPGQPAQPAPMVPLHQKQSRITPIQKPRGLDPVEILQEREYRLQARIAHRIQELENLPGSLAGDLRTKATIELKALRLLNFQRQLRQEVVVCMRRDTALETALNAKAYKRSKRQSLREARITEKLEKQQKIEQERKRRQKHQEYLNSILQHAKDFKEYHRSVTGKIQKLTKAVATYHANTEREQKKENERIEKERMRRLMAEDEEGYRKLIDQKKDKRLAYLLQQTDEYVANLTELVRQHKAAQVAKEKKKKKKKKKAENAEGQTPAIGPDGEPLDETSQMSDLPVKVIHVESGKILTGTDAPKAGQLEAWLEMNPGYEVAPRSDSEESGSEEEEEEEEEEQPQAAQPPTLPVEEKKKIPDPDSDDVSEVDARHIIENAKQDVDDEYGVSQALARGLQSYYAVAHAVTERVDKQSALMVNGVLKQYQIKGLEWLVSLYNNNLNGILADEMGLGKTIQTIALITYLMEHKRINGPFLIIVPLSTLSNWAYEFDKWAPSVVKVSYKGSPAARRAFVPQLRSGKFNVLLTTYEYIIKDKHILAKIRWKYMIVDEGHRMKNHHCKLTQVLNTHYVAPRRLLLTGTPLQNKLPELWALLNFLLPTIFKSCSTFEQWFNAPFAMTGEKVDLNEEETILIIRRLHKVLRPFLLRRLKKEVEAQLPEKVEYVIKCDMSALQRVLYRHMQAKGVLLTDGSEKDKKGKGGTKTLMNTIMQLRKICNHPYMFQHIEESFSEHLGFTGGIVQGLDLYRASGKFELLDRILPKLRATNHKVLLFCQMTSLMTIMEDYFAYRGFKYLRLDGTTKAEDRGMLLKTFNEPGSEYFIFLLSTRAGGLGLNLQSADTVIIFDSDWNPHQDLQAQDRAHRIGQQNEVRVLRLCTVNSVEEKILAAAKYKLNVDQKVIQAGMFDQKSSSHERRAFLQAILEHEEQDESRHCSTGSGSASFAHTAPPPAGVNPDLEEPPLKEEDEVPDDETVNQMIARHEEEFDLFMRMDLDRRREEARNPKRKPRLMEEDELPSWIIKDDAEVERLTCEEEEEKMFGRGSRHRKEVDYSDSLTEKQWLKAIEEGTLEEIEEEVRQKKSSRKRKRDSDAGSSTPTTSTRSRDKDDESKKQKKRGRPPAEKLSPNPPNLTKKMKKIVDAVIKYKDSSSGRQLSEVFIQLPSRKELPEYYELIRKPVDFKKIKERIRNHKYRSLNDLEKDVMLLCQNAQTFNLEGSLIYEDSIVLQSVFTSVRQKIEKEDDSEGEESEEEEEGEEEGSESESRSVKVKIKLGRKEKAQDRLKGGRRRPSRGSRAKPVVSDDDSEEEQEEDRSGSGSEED

Regarding `CN1CCCCc2ccc(-c3csc(NC(=O)CNC(=O)c4ccn(S(C)(=O)=O)c4)n3)cc21` [Compound 273], the IC50 is > 0.01 µM at BRM and > 0.1 µM at BRG-1.
The matching figures for `CS(=O)(=O)n1ccc(C(=O)NCC(=O)Nc2nc(-c3cccc(OC4CCCOC4)c3)cs2)c1` (stereo not drawn) [Compound 274]: > 0.01 µM and > 0.01 µM.
The matching figures for `CS(=O)(=O)n1ccc(C(=O)NCC(=O)Nc2nc(-c3cccc(-c4cn(C(F)F)nn4)c3)cs2)c1` [Compound 275]: > 0.01 µM and > 0.01 µM.
The matching figures for `CS(=O)(=O)n1ccc(C(=O)NCC(=O)Nc2nc(-c3cccc(OC(F)(F)F)c3)cs2)c1` [Compound 276]: > 0.01 µM and > 0.01 µM.
As to `CS(=O)(=O)n1ccc(C(=O)NCC(=O)Nc2nc(-c3cccc(-c4cnn(C5CC5)n4)c3)cs2)c1` [Compound 277], the IC50 was < 0.01 µM on BRM and > 0.01 µM at BRG-1.
With `CS(=O)(=O)n1ccc(C(=O)NCC(=O)Nc2nc(-c3cccc(-c4cnnn4C(F)F)c3)cs2)c1` [Compound 278], the IC50 on BRM and on BRG-1 was > 0.01 µM in each case.
For the compound `CS(=O)(=O)n1ccc(C(=O)NCC(=O)Nc2nc(-c3cccc(OC4CCOCC4)c3)cs2)c1` [Compound 279], the IC50 at BRM and on BRG-1 was > 0.01 µM throughout.
Regarding `CNc1cccc(-c2csc(NC(=O)CNC(=O)c3ccn(S(C)(=O)=O)c3)n2)c1` [Compound 280], the IC50 at BRM and at BRG-1 was > 0.01 µM throughout.
`CC(C)Oc1cccc(-c2csc(NC(=O)CNC(=O)c3ccn(S(C)(=O)=O)c3)n2)c1` [Compound 281]: the IC50 at BRM and at BRG-1 was > 0.01 µM in each case.
In the case of `CN1CCOc2ccc(-c3csc(NC(=O)CNC(=O)c4ccn(S(C)(=O)=O)c4)n3)cc21` [Compound 282], the IC50 at BRM and on BRG-1 was < 0.01 µM throughout.
Take `CN1CCOc2ccc(-c3csc(NC(=O)CNC(=O)c4ccn(C(C)(C)C)c4)n3)cc21` [Compound 283]: the IC50 on BRM and at BRG-1 was > 0.01 µM throughout.
With `CS(=O)(=O)n1ccc(C(=O)NCC(=O)Nc2nc(-c3cccc(OC4CCC4)c3)cs2)c1` [Compound 284], the IC50 at BRM and on BRG-1 was > 0.01 µM in each case.
On to `CS(=O)(=O)n1ccc(C(=O)NCC(=O)Nc2nc(-c3cccc(OC(F)F)c3)cs2)c1` [Compound 285], for which the IC50 on BRM and on BRG-1 was > 0.01 µM throughout.
As for `CCOc1cccc(-c2csc(NC(=O)CNC(=O)c3ccn(S(C)(=O)=O)c3)n2)c1` [Compound 286], the IC50 on BRM and at BRG-1 was > 0.01 µM each time.
`CN(C)c1cccc(-c2csc(NC(=O)CNC(=O)c3ccn(S(C)(=O)=O)c3)n2)c1` [Compound 287]: the IC50 at BRM is < 0.01 µM; at BRG-1, > 0.01 µM.
Take `CN(C)c1cccc(-c2csc(NC(=O)CNC(=O)c3ccn(C(C)(C)C)c3)n2)c1` [Compound 288]: the IC50 at BRM and on BRG-1 was > 0.01 µM in each case.
With `CS(=O)(=O)n1ccc(C(=O)NCC(=O)Nc2nc(-c3cccc(-c4cnn(C(F)F)n4)c3)cs2)c1` [Compound 289], the IC50 on BRM and on BRG-1 was > 0.01 µM in each case.
With `CS(=O)(=O)n1ccc(C(=O)NCC(=O)Nc2nc(-c3cccc(N4CC[C@@H](N)[C@H](F)C4)c3)cs2)c1` [Compound 290], the results for the IC50 on BRM and on BRG-1 were < 0.01 µM and > 0.01 µM, respectively.
For `C[C@@H]1C[C@@H](COc2cccc(-c3csc(NC(=O)CNC(=O)c4ccn(S(C)(=O)=O)c4)n3)c2)C[C@H](C)O1` [Compound 291], in that order: > 0.01 µM and > 0.01 µM.
For `C[C@@H]1C[C@H](COc2cccc(-c3csc(NC(=O)CNC(=O)c4ccn(S(C)(=O)=O)c4)n3)c2)C[C@H](C)O1` [Compound 292], in that order: > 0.1 µM and > 0.1 µM.
The matching figures for `C[C@@H]1CN(c2cc(-c3csc(NC(=O)CNC(=O)c4ccn(S(C)(=O)=O)c4)n3)ccc2F)C[C@H](C)O1` [Compound 293]: < 0.01 µM and < 0.01 µM.
`C[C@@H]1CN(c2cccc(-c3csc(NC(=O)CNC(=O)c4ccn(S(C)(=O)=O)c4)n3)c2F)C[C@H](C)O1` [Compound 294]: the IC50 on BRM and on BRG-1 was > 0.01 µM throughout.
`C[C@@H]1CN(c2cc(F)cc(-c3csc(NC(=O)CNC(=O)c4ccn(S(C)(=O)=O)c4)n3)c2)C[C@H](C)O1` [Compound 295]: the IC50 on BRM and on BRG-1 was < 0.01 µM throughout.
On to `Cc1cc(-c2cccc(-c3csc(NC(=O)CNC(=O)c4ccn(S(C)(=O)=O)c4)n3)c2)on1` [Compound 296], for which the IC50 at BRM and at BRG-1 was > 0.01 µM throughout.
Take `C[C@@H]1CN(c2ccc(F)c(-c3csc(NC(=O)CNC(=O)c4ccn(S(C)(=O)=O)c4)n3)c2)C[C@H](C)O1` [Compound 297]: the IC50 on BRM is > 0.01 µM; on BRG-1, > 0.1 µM.
`CS(=O)(=O)n1ccc(C(=O)NCC(=O)Nc2nc(-c3cccc(C4CCC4)c3)cs2)c1` [Compound 298]: the IC50 at BRM and on BRG-1 was > 0.01 µM throughout.
For the compound `C[C@@H]1CN(c2cc(-c3csc(NC(=O)CNC(=O)c4ccn(C(C)(C)C)c4)n3)ccn2)C[C@H](C)O1` [Compound 299], the values for the IC50 on BRM and at BRG-1 were < 0.01 µM and > 0.01 µM, respectively.
`CS(=O)(=O)n1ccc(C(=O)NCC(=O)Nc2nc(-c3cccc(OC[C@H]4CCOC4)c3)cs2)c1` [Compound 303, 1-methylsulfonyl-N-[2-oxo-2-[[4-[3-[[(3S)-tetrahydrofuran-3-yl]methoxy]phenyl]thiazol-2-yl]amino]ethyl]pyrrole-3-carboxamide]: the IC50 on BRM was < 0.01 µM; at BRG-1, > 0.01 µM.
With `CS(=O)(=O)n1ccc(C(=O)NCC(=O)Nc2nc(-c3cccc(OC[C@@H]4CCOC4)c3)cs2)c1` [Compound 304, 1-methylsulfonyl-N-[2-oxo-2-[[4-[3-[[(3R)-tetrahydrofuran-3-yl]methoxy]phenyl]thiazol-2-yl]amino]ethyl]pyrrole-3-carboxamide], the IC50 on BRM and on BRG-1 was > 0.01 µM in each case.
Take `CN1CCCc2ccc(-c3csc(NC(=O)CNC(=O)c4ccn(C(C)(C)C)c4)n3)cc21` [Compound 305]: the IC50 at BRM and on BRG-1 was > 0.01 µM in each case.
Take `CN1CCCc2ccc(-c3csc(NC(=O)CNC(=O)c4ccn(S(C)(=O)=O)c4)n3)cc21` [Compound 306]: the IC50 on BRM and on BRG-1 was > 0.01 µM each time.
On to `CS(=O)(=O)n1ccc(C(=O)NCC(=O)Nc2nc(-c3cccc(OCC4CCC4)c3)cs2)c1` [Compound 307], for which the IC50 on BRM and at BRG-1 was > 0.01 µM in each case.
With `CC(C)(C)n1ccc(C(=O)NCC(=O)Nc2nc(-c3ccc4c(c3)OCC4)cs2)c1` [Compound 308], the IC50 at BRM and on BRG-1 was > 0.01 µM throughout.
As for `CS(=O)(=O)n1ccc(C(=O)NCC(=O)Nc2nc(-c3ccc4c(c3)OCC4)cs2)c1` [Compound 309], the IC50 at BRM and on BRG-1 was > 0.01 µM throughout.
Turning to `CO[C@H]1CCCN(c2cccc(-c3csc(NC(=O)CNC(=O)c4ccn(C(C)(C)C)c4)n3)n2)C1` [Compound 311], the IC50 on BRM and at BRG-1 was > 0.01 µM in each case.
Take `CO[C@@H]1CCCN(c2cccc(-c3csc(NC(=O)CNC(=O)c4ccn(C(C)(C)C)c4)n3)n2)C1` [Compound 312]: the IC50 at BRM and on BRG-1 was > 0.01 µM each time.
As to `CO[C@H]1CCCN(c2cccc(-c3csc(NC(=O)CNC(=O)c4ccn(C5(C)COC5)c4)n3)n2)C1` [Compound 313], the IC50 at BRM and on BRG-1 was > 0.1 µM throughout.
On to `CC(C)(C)n1ccc(C(=O)NCC(=O)Nc2nc(-c3cccc(N4CCC(O)CC4)n3)cs2)c1` [Compound 314], for which the IC50 at BRM and at BRG-1 was > 0.01 µM throughout.
For `C[C@@H]1CN(c2cccc(-c3csc(NC(=O)CNC(=O)c4ccn(C5(C)COC5)c4)n3)n2)C[C@H](C)O1` [Compound 316], the IC50 at BRM is < 0.01 µM; on BRG-1, > 0.01 µM.
For `CC(C)(C)n1ccc(C(=O)NCC(=O)Nc2nc(-c3cccc(N4CC(N5CCOCC5)C4)n3)cs2)c1` [Compound 317], in that order: > 0.1 µM and > 0.1 µM.
For the compound `COC[C@@H]1CCCN(c2cccc(-c3csc(NC(=O)CNC(=O)c4ccn(C(C)(C)C)c4)n3)n2)C1` [Compound 318], the IC50 on BRM and on BRG-1 was > 0.01 µM in each case.
Consider `COC[C@H]1CCCN(c2cccc(-c3csc(NC(=O)CNC(=O)c4ccn(C(C)(C)C)c4)n3)n2)C1` [Compound 319], for which the IC50 at BRM and on BRG-1 was > 0.01 µM in each case.
Regarding `CC1(n2ccc(C(=O)NCC(=O)Nc3nc(-c4ccnc(N5CCC(O)CC5)n4)cs3)c2)COC1` [Compound 321], the values for the IC50 at BRM and on BRG-1 were > 0.01 µM and > 0.1 µM, respectively.
`CC(C)(C)n1ccc(C(=O)NCC(=O)Nc2nc(-c3ccnc(N4CCC(O)CC4)n3)cs2)c1` [Compound 322]: the IC50 on BRM and on BRG-1 was > 0.01 µM in each case.
In the case of `C[C@@H]1CN(c2nccc(-c3csc(NC(=O)CNC(=O)c4ccn(C5(C)COC5)c4)n3)n2)C[C@H](C)O1` [Compound 324], the IC50 on BRM and at BRG-1 was > 0.01 µM each time.
On to `C[C@@H]1CN(c2nccc(-c3csc(NC(=O)CNC(=O)c4ccn(S(C)(=O)=O)c4)n3)n2)C[C@H](C)O1` [Compound 325], for which the IC50 on BRM and at BRG-1 was < 0.01 µM in each case.
On to `C[C@@H]1CN(c2nccc(-c3csc(NC(=O)CNC(=O)c4ccn(C(C)(C)C)c4)n3)n2)C[C@H](C)O1` [Compound 326], for which the IC50 on BRM was < 0.01 µM; at BRG-1, > 0.01 µM.
The matching figures for `Cn1ccc(-c2cccc(-c3csc(NC(=O)CNC(=O)c4ccn(C5(C)COC5)c4)n3)n2)n1` [Compound 327, 1-(3-methyloxetan-3-yl)-N-[2-[[4-[6-(1-methylpyrazol-3-yl)-2-pyridyl]thiazol-2-yl]amino]-2-oxo-ethyl]pyrrole-3-carboxamide]: > 0.01 µM and > 0.01 µM.
